Patent publication US6613718B2, “Aryl ether derivatives and processes for their preparation and herbicidal and desiccant compositions containing them” (Ishihara Sangyo Kaisha, Ltd., priority 2001, dated 2003)

Experiments:
Assay type in all cases: in vivo
Conditions in all cases: 14 days after application
[1] = tested on: upland rice (Oryza sp., var.Tebonnet, RICE); assay: Post-emerge greenhouse screening, crop safety (phytotoxicity rating)
Method in brief: (§1)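 Each compound, dissolved in acetone, was sprayed at 15–1000 g ai/ha. Pre-emerge pots were sown the previous day and watered from above right after treatment; post-emerge plants, 2-3 leaves, got 0.25% v/v surfactant. Injury was graded 0–100 on day 14.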

[2] = tested on: soybean (Glycine max L., var. Pella 86, SOY); assay: as above
Method in brief: as §1

[3] = tested on: field corn (Zea mays L., var. Dekalb 535, CORN); assay: Pre-emerge greenhouse screening, crop safety (phytotoxicity rating)
Method in brief: as §1

[4] = tested on: upland rice (Oryza sp., var.Tebonnet, RICE); assay: as above
Method in brief: as §1

[5] = tested on: soybean (Glycine max L., var. Pella 86, SOY); assay: as above
Method in brief: as §1

[6] = tested on: redroot pigweed (Amaranthus retroflexus, AMARE); assay: Post-emerge greenhouse herbicide activity screening, phytotoxicity rating
Method in brief: as §1

[7] = tested on: barnyardgrass (Echinochloa crus-galli, ECHCG); assay: as above
Method in brief: as §1

[8] = tested on: ivyleaf morningglory (Ipomoea hederacea, IPOHE); assay: as above
Method in brief: as §1

[9] = tested on: velvetleaf (Abutilon theophrasti, ABUTH); assay: as above
Method in brief: as §1

[10] = tested on: lambsquarters (Chenopodium album, CHEAL); assay: as above
Method in brief: as §1

[11] = tested on: green foxtail (Setaria viridis, SETVI); assay: as above
Method in brief: as §1

[12] = tested on: johnsongrass (Sorghum halepense, SORHA); assay: as above
Method in brief: as §1

[13] = tested on: large crabgrass (Digitaria sanguinalis, DIGSA); assay: as above
Method in brief: as §1

[14] = tested on: sicklepod (Cassia obtusifolia, CASOB); assay: as above
Method in brief: as §1

[15] = tested on: common ragweed (Ambrosia artemisiifolia L., AMBEL); assay: as above
Method in brief: as §1

[16] = tested on: field corn (Zea mays L., var. Dekalb 535, CORN); assay: Post-emerge greenhouse screening, crop safety / corn selectivity (phytotoxicity rating)
Method in brief: as §1

[17] = tested on: redroot pigweed (Amaranthus retroflexus, AMARE); assay: Pre-emerge greenhouse herbicide activity screening, phytotoxicity rating
Method in brief: as §1

[18] = tested on: barnyardgrass (Echinochloa crus-galli, ECHCG); assay: as above
Method in brief: as §1

[19] = tested on: ivyleaf morningglory (Ipomoea hederacea, IPOHE); assay: as above
Method in brief: as §1

[20] = tested on: velvetleaf (Abutilon theophrasti, ABUTH); assay: as above
Method in brief: as §1

[21] = tested on: lambsquarters (Chenopodium album, CHEAL); assay: as above
Method in brief: as §1

[22] = tested on: green foxtail (Setaria viridis, SETVI); assay: as above
Method in brief: as §1

[23] = tested on: johnsongrass (Sorghum halepense, SORHA); assay: as above
Method in brief: as §1

[24] = tested on: large crabgrass (Digitaria sanguinalis, DIGSA); assay: as above
Method in brief: as §1

[25] = tested on: sicklepod (Cassia obtusifolia, CASOB); assay: as above
Method in brief: as §1

[26] = tested on: common ragweed (Ambrosia artemisiifolia L., AMBEL); assay: as above
Method in brief: as §1

Cn1c(C(F)(F)F)cc(=O)n(-c2cc(Oc3ccccc3O)c(C#N)cc2F)c1=S [Compound 1-70]
RICE crop damage, phytotoxicity rating (0-100 scale) ([1]; 125 g ai/ha): 0
RICE crop damage, phytotoxicity rating (0-100 scale) ([1]; 250 g ai/ha): 0
SOY crop damage, phytotoxicity rating (0-100 scale) ([2]; 125 g ai/ha): 30
SOY crop damage, phytotoxicity rating (0-100 scale) ([2]; 250 g ai/ha): 65
CORN crop damage, phytotoxicity rating (0-100 scale) ([3]; 125 g ai/ha): 15
CORN crop damage, phytotoxicity rating (0-100 scale) ([3]; 250 g ai/ha): 15
RICE crop damage, phytotoxicity rating (0-100 scale) ([4]; 125 g ai/ha): 50
RICE crop damage, phytotoxicity rating (0-100 scale) ([4]; 250 g ai/ha): 55
SOY crop damage, phytotoxicity rating (0-100 scale) ([5]; 125 g ai/ha): 30
SOY crop damage, phytotoxicity rating (0-100 scale) ([5]; 250 g ai/ha): 80
AMARE phytotoxicity rating (0-100 scale) ([6]; 125 g ai/ha): 100
AMARE phytotoxicity rating (0-100 scale) ([6]; 250 g ai/ha): 100
ECHCG phytotoxicity rating (0-100 scale) ([7]; 125 g ai/ha): 55
ECHCG phytotoxicity rating (0-100 scale) ([7]; 250 g ai/ha): 80
IPOHE phytotoxicity rating (0-100 scale) ([8]; 125 g ai/ha): 99
IPOHE phytotoxicity rating (0-100 scale) ([8]; 250 g ai/ha): 99
ABUTH phytotoxicity rating (0-100 scale) ([9]; 125 g ai/ha): 100
ABUTH phytotoxicity rating (0-100 scale) ([9]; 250 g ai/ha): 100
CHEAL phytotoxicity rating (0-100 scale) ([10]; 125 g ai/ha): 100
CHEAL phytotoxicity rating (0-100 scale) ([10]; 250 g ai/ha): 100
SETVI phytotoxicity rating (0-100 scale) ([11]; 125 g ai/ha): 65
SETVI phytotoxicity rating (0-100 scale) ([11]; 250 g ai/ha): 75
SORHA phytotoxicity rating (0-100 scale) ([12]; 125 g ai/ha): 0
SORHA phytotoxicity rating (0-100 scale) ([12]; 250 g ai/ha): 25
DIGSA phytotoxicity rating (0-100 scale) ([13]; 125 g ai/ha): 15
DIGSA phytotoxicity rating (0-100 scale) ([13]; 250 g ai/ha): 30
CASOB phytotoxicity rating (0-100 scale) ([14]; 125 g ai/ha): 65
CASOB phytotoxicity rating (0-100 scale) ([14]; 250 g ai/ha): 65
AMBEL phytotoxicity rating (0-100 scale) ([15]; 125 g ai/ha): 60
AMBEL phytotoxicity rating (0-100 scale) ([15]; 250 g ai/ha): 65
CORN crop damage, phytotoxicity rating (0-100 scale) ([16]; 125 g ai/ha): 0
CORN crop damage, phytotoxicity rating (0-100 scale) ([16]; 250 g ai/ha): 0
AMARE phytotoxicity rating (0-100 scale) ([17]; 125 g ai/ha): 100
AMARE phytotoxicity rating (0-100 scale) ([17]; 250 g ai/ha): 100
ECHCG phytotoxicity rating (0-100 scale) ([18]; 125 g ai/ha): 85
ECHCG phytotoxicity rating (0-100 scale) ([18]; 250 g ai/ha): 95
IPOHE phytotoxicity rating (0-100 scale) ([19]; 125 g ai/ha): 99
IPOHE phytotoxicity rating (0-100 scale) ([19]; 250 g ai/ha): 99
ABUTH phytotoxicity rating (0-100 scale) ([20]; 125 g ai/ha): 100
ABUTH phytotoxicity rating (0-100 scale) ([20]; 250 g ai/ha): 100
CHEAL phytotoxicity rating (0-100 scale) ([21]; 125 g ai/ha): 100
CHEAL phytotoxicity rating (0-100 scale) ([21]; 250 g ai/ha): 100
SETVI phytotoxicity rating (0-100 scale) ([22]; 125 g ai/ha): 75
SETVI phytotoxicity rating (0-100 scale) ([22]; 250 g ai/ha): 100
SORHA phytotoxicity rating (0-100 scale) ([23]; 125 g ai/ha): 65
SORHA phytotoxicity rating (0-100 scale) ([23]; 250 g ai/ha): 99
DIGSA phytotoxicity rating (0-100 scale) ([24]; 125 g ai/ha): 85
DIGSA phytotoxicity rating (0-100 scale) ([24]; 250 g ai/ha): 99
CASOB phytotoxicity rating (0-100 scale) ([25]; 125 g ai/ha): 65
CASOB phytotoxicity rating (0-100 scale) ([25]; 250 g ai/ha): 85
AMBEL phytotoxicity rating (0-100 scale) ([26]; 125 g ai/ha): 90
AMBEL phytotoxicity rating (0-100 scale) ([26]; 250 g ai/ha): 99
